Molecules are shown by their SMILES.

Data set [1] concerns M. tuberculosis (ATCC 25177). Nature of the data set: BACTEC 460 TB radiometric growth inhibition bioassay (bacteriostatic activity). Format: cell-based, Mycobacterium tuberculosis. The conditions noted are these: final concentration of 0.1 mg/ml in Bactec 7H12 B+ medium; percent inhibition from growth index.
A short description of data set [2]: Stability in solution. Format: physicochemical. The conditions noted are these: decomposes quickly when the solution is heated or stored for a long time, with formation of OF-12.
Data set [3] in a line: in vivo. The conditions noted are these: both sexes, mouse, ip, white mice, intraperitoneal injection of 2% solution in starch, 14 day observation. How it is done: Animal Toxicity Bioassay. Acute toxicity was studied on white mice of both sexes with weight ranging between 18-26 grams under intraperitoneal injection of 2% solution of tested compound in starch (the compound was dissolved in starch slime and injected) on the basis of 0.1 ml of solution per 10 g of the animal weight. Each dose was tested on the group of 6 animals that were observed during 14 day period. (This method was approved by the Pharmacology committee of Russian Ministry of Health and has been widely used since 1968.) Averaged lethal dose (LD50) of the compound was computed using results of experiments on 5-7 groups of animals using the method of Litchfield and Wilkinson. (Belenkii M. L. “Elements of quantative determination of the pharmacological effect,” Leningrad, 1963, 71 pages).
The acute toxicity of isoniazid is as following: LCLo (lowest published lethal concentration) for man is 100 mg/kg. […] All toxicity information about isoniazid can also be found on the web site: http://ntp-server.niehs.nih.gov/htdocs/Chem H&S/NTP Chem5/Radian54-85-3.html

The test system of data set [4] is man. The conditions noted are these: cited from earlier work.

For `CCOc1ccc(C(=O)CC(O)(NN=C2c3ccccc3-c3ccccc32)C(=O)OC)cc1` (centres unmarked) [OF-13, 4-(4-Ethoxyphenyl)-2-(N′-fluoren-9-ylidenehydrazino)-2-hydroxy-4-oxobutyric acid methyl ester], the “percent activity against Mycobacterium tuberculosis” value in data set [1] is listed as 88%. For the same molecule, the Stability in solutions result in data set [2] is “not stable in solutions”. Besides, the LD50 (commonly the dose at which mortality reaches 50%) at 14 day in data set [3] is greater than 1500 mg/kg.
`NNC(=O)c1ccncc1` [isoniazid, isonicotinic acid hydrazide]: in data set [4] (adults, acute ingestion), the “acute ingestion leading to mild toxicity” value is no less than 1.5 g, the “ingestion that may be fatal” value is 6 to 10 g and the “ingestion usually fatal if not appropriately treated” value is listed as 15 g. Besides, in data set [4] (man), the “LCLo (lowest published lethal concentration)” value is given as 100 mg/kg.
For `COC(=O)C(=CC(=O)C(C)(C)C)Nc1ccc(Br)cc1` [OF-15, 2-(4-Bromophenylamino)-5,5-dimethyl-4-oxohex-2-enoic acid methyl ester], the “percent activity against Mycobacterium tuberculosis” value in data set [1] is 98%. The LD50 at 14 day in data set [3] was greater than 1500 mg/kg.
The corresponding values for `CCOc1ccc(C(=O)C=C(NN=C2c3ccccc3-c3ccccc32)C(=O)OC)cc1` [OF-12, 4-(4-Ethoxyphenyl)-2-(N′-fluoren-9-ylidenehydrazino)-4-oxobut-2-enoic acid methyl ester] are 81% and greater than 1500 mg/kg.

These data come from patent US6683110B1, “Methyl esters of substituted 4-oxo-2-butenoic acid for treatment of tuberculosis” (University of Central Florida, priority 2001, dated 2004).
